Results published in ChEMBL document CHEMBL1153292, “Atropisomeric small molecule Bcl-2 ligands: determination of bioactive conformation” (Bioorg Med Chem Lett, 2009).

Molecular target: Apoptosis regulator Bcl-2 (Homo sapiens, UniProt P10415)
Assay: Inhibition of GST fused Bcl-2 binding to biotinylated 16 mer BH3 peptide by HTRF-LANCE assay

Sequence of Apoptosis regulator Bcl-2 (P10415 whole entry, the tested form may be a part): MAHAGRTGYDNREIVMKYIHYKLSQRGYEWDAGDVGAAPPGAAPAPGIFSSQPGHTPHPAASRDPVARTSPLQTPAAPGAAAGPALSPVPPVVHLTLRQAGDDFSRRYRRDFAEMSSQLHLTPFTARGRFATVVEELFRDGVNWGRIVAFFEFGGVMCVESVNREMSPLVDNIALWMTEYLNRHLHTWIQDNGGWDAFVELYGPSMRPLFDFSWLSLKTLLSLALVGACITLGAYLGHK

SMILES | IC50 [nM]
Cc1cccc(-n2nc(C(=O)N(c3ccccc3)c3ccccc3)cc2C)c1C(=O)N1Cc2ccccc2C[C@@H]1CO (atropisomer aR; form 1) | 1100
CCCCN(CCCC)C(=O)c1nn(-c2cccc(C)c2C(=O)N2Cc3ccccc3C[C@H]2CN)c(C)c1Cl | 42
Cc1cccc(-n2nc(C(=O)N(c3ccccc3)c3ccccc3)cc2C)c1C(=O)N1Cc2ccccc2CC1CO (configuration not stated) | 600

Results, then the molecule that gave them:

IC50 [nM] | SMILES
210 | Cc1cccc(-n2nc(C(=O)N(c3ccccc3)c3ccccc3)cc2C)c1C(=O)N1Cc2ccccc2C[C@H]1CO (atropisomer aS)
390 | Cc1cccc(-n2nc(C(=O)N(c3ccccc3)c3ccccc3)cc2C)c1C(=O)N1Cc2ccccc2C[C@@H]1CO (atropisomer aR; form 3)
6100 | Cc1cccc(-n2nc(C(=O)N(c3ccccc3)c3ccccc3)cc2C)c1C(=O)N1Cc2ccccc2C[C@@H]1CO (atropisomer aR; form 2)
175 | CCCCN(CCCC)C(=O)c1cc(C)n(-c2cccc(C)c2C(=O)N2Cc3ccccc3C[C@H]2CN)n1
